Laboratory results: US7732633B2, “Arylsulfinate salts in photoinitiator systems for polymerization reactions” (3M Innovative Properties Company, priority 2003, dated 2010)

Tests used:
[1] = in N,N-dimethylformamide, 0.1 molar TBA PF6, versus Ag/0.01M AgNO3 reference electrode, peak current, first scan, 100 mV/sec
Description: The oxidation potential can be determined using cyclic voltammetry. As described herein, the oxidation potential is measured by dissolving the compound of interest in a non-aqueous solvent (i.e., N,N-dimethylformamide) containing a supporting electrolyte (i.e., 0.1 moles/liter tetrabutylammonium hexafluorophosphate). The resulting solution is purged with an inert gas such as argon. A three-electrode configuration is used that includes a working electrode (i.e., a glassy carbon electrode), a reference electrode (i.e., a silver wire in a 0.01 moles/liter of silver nitrate dissolved in acetonitrile), and a counter electrode (i.e., a platinum wire). The oxidation or reduction potential is the voltage corresponding to the maximum current for the oxidation reaction.
The scan rates were 100 mV/sec.
The electrochemical measurements were made using a three-electrode configuration: a reference electrode, a working electrode, and a counter electrode. The reference electrode was a fritted electrode (obtained from Sargent Welch, Buffalo Grove, Ill.) that was filled with 0.01M AgNO3 in acetonitrile and fitted with a silver wire 1 mm in diameter by approximately 19 cm in length. The counter electrode was a platinum wire 1.0 mm in diameter and approximately 16 cm long (overall length) formed into a coil having a coil diameter of approximately 10 mm and a coil length of about 7.5 cm. The working electrode was a glassy carbon electrode, approximately 3.5 mm in diameter (obtained from BAS, Inc., West Lafayette, Ind.). The glassy carbon electrode was polished using first a 3.0 micron aluminum oxide powder/deionized water slurry, then a 0.3 micron alpha alumina powder/deionized water slurry. The polishing powders were obtained from Buehler LTD, Evanston, Ill.
The cell was a 50 mL four neck round bottom flask. Each electrode was sealed in the flask using the appropriately sized rubber septum. The fourth inlet was used to introduce an argon purge to remove oxygen and keep atmospheric moisture out of the cell.
The supporting electrolyte was tetrabutylammonium hexafluorophosphate (TBA PF6) (obtained from Southwestern Analytical Chemicals, Inc., Austin, Tex.). The TBA PF6 was dried overnight in a vacuum oven at 80-90° C. before each experiment. The solvent was N,N-dimethylformamide (DMF), and it was used as received without further purification. The solvent was transferred to the electrochemical cell via syringe under an argon atmosphere to minimize atmospheric moisture uptake.
Electrochemical measurements were made by first preparing a 0.1 molar solution of TBA PF6 in DMF. […] The potential was determined at the peak current for the oxidation or reduction reaction on the first scan.

[2] = time to oxidize 50 weight percent of the compound at room temperature; solutions in acetonitrile-d3; pseudo-first order kinetics
Description: The oxidative stability of the exemplary substituted arylsulfinates was determined by proton nuclear magnetic resonance spectroscopy. Spectra of solutions of the compounds in acetonitrile-d3 were obtained at regular intervals. The resonances of the alkyl groups in the cations were used as an internal standard to assess the oxidation of the anion.

Substance	Eox [1]	t1/2 [2]
tetrabutylammonium 4-chlorobenzenesulfinate [Example 1]	0.09 V	–
tetrabutylammonium 4-cyanobenzenesulfinate [Example 4]	0.15 V	>300 days
tetrabutylammonium 4-ethoxycarbonylbenzenesulfinate [Example 2]	0.11 V	–
tetrabutylammonium 4-trifluoromethylbenzenesulfinate [Example 3]	0.18 V	–
